Where two headings read alike, the source gives them in different places.
Key:
[1] = tested on: HCV genotype 1b (Con1) replicon in HUH-7 cells; assay: HCV replicon luciferase reporter assay, genotype 1b; type: cell-based; settings: Hepatitis C virus, 72 h, genotype 1b replicon, 3 days incubation
Outline: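 Twenty-point, threefold compound titrations (0.5% DMSO) were incubated 3 days at 37 °C with 3.0×10^3 HUH-7 cells/well in 4% FCS. The cells stably carried luciferase replicons: genotype 1b Con1 (S1179I) or 1a H77 (NS3 P1496L, NS5A S2204I). Renilla signal was read after 2 h with 7.5 μM EnduRen, and EC50 was taken from a four-parameter logistic fit. Cytotoxicity (CC50) was measured by Cell Titer-Blue, 8 h.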

[2] = tested on: HCV genotype 1a (H77 strain) replicon in HUH-7 cells; assay: HCV replicon luciferase reporter assay, genotype 1a; type: cell-based; settings: Hepatitis C virus, 72 h, genotype 1a replicon, 3 days incubation
From the text: An HCV replicon whole cell system was established as described by Lohmann V, Korner F, Koch J, Herian U, Theilmann L, Bartenschlager R., Science 285(5424):110-3 (1999) and modified to introduce a luciferase reporter, as first described by Krieger et al (Krieger N, Lohmann V, and Bartenschlager R, J. Virol. 75(10):4614-4624 (2001)). CDNA encoding a humanized form of the Renilla luciferase gene and a linker sequence fused directly to the 3′-end of the luciferase gene were introduced into the replicon construct using an Asc1 restriction site located in core, directly upstream of the neomycin marker gene. The adaptive mutation at position 1179 (serine to isoleucine) was also introduced (Blight K J, Kolykhalov, A A, Rice, C M, Science 290(5498):1972-1974). A stable cell line constitutively expressing this HCV replicon construct was generated by first linearizing plasmid DNAs with ScaI. RNA transcripts were synthesized in vitro using the T7 MegaScript transcription kit (Ambion, Austin, Tex.) according to manufacturer's directions. In vitro transcripts of the cDNA were transfected into the human hepatoma cell line, HUH-7. […] Resulting cell lines were characterized for positive and negative strand RNA production and protein production over time.
A stable HCV replicon luciferase reporter cell line representing the genotype 1a H77 strain (Yanagi M, Purcell R H, Emerson S U, et al. Transcripts from a single full-length cDNA clone of hepatitis C virus are infectious when directly transfected into the liver of a chimpanzee. Proc Natl Acad Sci USA 1997; 94(16):8738-8743) was generated as described previously for the genotype 1b (Con1) replicon luciferase cell line. The replicon construct was modified by introducing mutations were introduced into the genes encoding the NS3 helicase domain (proline replaced by leucine at position 1496) and NS5A (serine to isoleucine at position 2204) to improve replication in cell culture.
HCV replicon luciferase assays were developed to monitor the inhibitory effects of compounds described in the disclosure on HCV genotypes 1a and 1b viral replication. HUH-7 cells, constitutively expressing the HCV replicon, were grown in Dulbecco's Modified Eagle Media (DMEM) (Gibco-BRL) containing 10% Fetal calf serum (FCS) (Sigma) and 1 mg/mL G418 (Gibco-BRL). Compounds were serially diluted 3 folds in DMSO for a twenty-point titration and subsequently transferred to sterile 384-well tissue-culture treated plates (Corning cat #3571). The plates were then seeded with 50 μL of cells at a density of 3.0×10^3 cells/well in DMEM containing 4% FCS (final DMSO concentration at 0.5%). After 3 days incubation at 37° C., cells were analyzed for Renilla Luciferase activity using the EnduRen as substrate (Promega cat #E6485). The EnduRen substrate was diluted in DMEM and then added to the plates to a final concentration of 7.5 μM. The plates were incubated for 2 hrs at 37° C. and then read immediately for 30 seconds with Viewlux Imager (PerkinElmer) using a luminescence program. To assess cytotoxicity of compounds, CC50 values were generated by multiplexing the EnduRen-containing plates with Cell Titer-Blue (Promega, cat # G8082). Cell-Titer Blue (3 μL) was added to each well and incubated for 8 hrs at 37° C. The fluorescence signal from each well was read, with an excitation wavelength at 525/10 nm and an emission wavelength of 598/10 nm, using the Viewlux Imager.
The EC50 values for compounds were calculated by using a four-parameter logistic equation: y=A+((B−A)/(1+((C/x)^D))), where A and B denotes minimal and maximal % inhibition, respectively, C is the EC50, D is the hill slope and x represents compound concentration.

SMILES	EC50 ([1]; read-out: LE_1b (EC50, range)) [nM]	EC50 ([2]; read-out: LE_1a (EC50, range)) [nM]	EC50 ([1]; read-out: LE_1b (EC50)) [nM]	EC50 ([2]; read-out: LE_1a (EC50)) [nM]
COC[C@@H]1C[C@@H](C)CC/C=C\[C@@H]2C[C@@]2(C(=O)NS(=O)(=O)C2CC2)NC(=O)[C@@H]2C[C@@H](Oc3ncc(OC)c4ccccc34)CN2C(=O)[C@H]1NC(=O)OC(C)(C)C(F)(F)F [Compound 1013, 1,1,1-trifluoro-2-methylpropan-2-yl ((2R,6S,7R,9S,13aS,14aR,16aS,Z)-14a-((cyclopropylsulfonyl)carbamoyl)-2-((4-methoxyisoquinolin-1-yl)oxy)-7-(methoxymethyl)-9-methyl-5,16-dioxo-1,2,3,5,6,7,8,9,10,11,13a,14,14a,15,16,16a-hexadecahydrocyclopropa[e]pyrrolo[1,2-a][1,4]diazacyclopentadecin-6-yl)carbamate]	1.01 to 5	1.01 to 5		
COC[C@@H]1C[C@H](C)CC/C=C\[C@@H]2C[C@@]2(C(=O)NS(=O)(=O)C2(C)CC2)NC(=O)[C@@H]2C[C@@H](Oc3ncc(OC)c4ccccc34)CN2C(=O)[C@H]1NC(=O)OC(C)(C)C(F)(F)F [Compound 1016, 1,1,1-trifluoro-2-methylpropan-2-yl ((2R,6S,7R,9R,13aS,14aR,16aS,Z)-2-((4-methoxyisoquinolin-1-yl)oxy)-7-(methoxymethyl)-9-methyl-14a-(((1-methylcyclopropyl)sulfonyl)carbamoyl)-5,16-dioxo-1,2,3,5,6,7,8,9,10,11,13a,14,14a,15,16,16a-hexadecahydrocyclopropa[e]pyrrolo[1,2-a][1,4]diazacyclopentadecin-6-yl)carbamate]	0.1 to 0.5	0.51 to 1	0.26	0.84
COC[C@@H]1C[C@H](C)CC/C=C\[C@@H]2C[C@@]2(C(=O)NS(=O)(=O)C2(CF)CC2)NC(=O)[C@@H]2C[C@@H](Oc3nc4cc(OC)ccc4nc3C(C)C)CN2C(=O)[C@H]1NC(=O)OC(C)(C)C(F)(F)F [Compound 1039]	1.01 to 5	5.01 to 35		
COC[C@@H]1C[C@@H](C)CC/C=C\[C@@H]2C[C@@]2(C(=O)NS(=O)(=O)C2CC2)NC(=O)[C@@H]2C[C@@H](Oc3nccc4cc(OC)ccc34)CN2C(=O)[C@H]1NC(=O)OC(C)(C)C [Compound 1008, tert-butyl ((2R,6S,7R,9S,13aS,14aR,16aS,Z)-14a-((cyclopropylsulfonyl)carbamoyl)-2-((6-methoxyisoquinolin-1-yl)oxy)-7-(methoxymethyl)-9-methyl-5,16-dioxo-1,2,3,5,6,7,8,9,10,11,13a,14,14a,15,16,16a-hexadecahydrocyclopropa[e]pyrrolo[1,2-a][1,4]diazacyclopentadecin-6-yl)carbamate]	1.01 to 5	1.01 to 5		
COC[C@@H]1C[C@@H](C)CC/C=C\[C@@H]2C[C@@]2(C(=O)NS(=O)(=O)C2(CF)CC2)NC(=O)[C@@H]2C[C@@H](Oc3nc4cc(OC)ccc4nc3C(C)C)CN2C(=O)[C@H]1NC(=O)OC(C)(C)C [Compound 1024, tert-butyl ((2R,6S,7R,9S,13aS,14aR,16aS,Z)-14a-(((1-(fluoromethyl)cyclopropyl)sulfonyl)carbamoyl)-2-((3-isopropyl-7-methoxyquinoxalin-2-yl)oxy)-7-(methoxymethyl)-9-methyl-5,16-dioxo-1,2,3,5,6,7,8,9,10,11,13a,14,14a,15,16,16a-hexadecahydrocyclopropa[e]pyrrolo[1,2-a][1,4]diazacyclopentadecin-6-yl)carbamate]	5.01 to 35	35 to 620		
COC[C@@H]1C[C@@H](C)CC/C=C\[C@@H]2C[C@@]2(C(=O)NS(=O)(=O)C2(C)CC2)NC(=O)[C@@H]2C[C@@H](Oc3nccc4cc(OC)ccc34)CN2C(=O)[C@H]1NC(=O)OC(C)(C)C(F)(F)F [Compound 1015, 1,1,1-trifluoro-2-methylpropan-2-yl ((2R,6S,7R,9S,13aS,14aR,16aS,Z)-2-((6-methoxyisoquinolin-1-yl)oxy)-7-(methoxymethyl)-9-methyl-14a-(((1-methylcyclopropyl)sulfonyl)carbamoyl)-5,16-dioxo-1,2,3,5,6,7,8,9,10,11,13a,14,14a,15,16,16a-hexadecahydrocyclopropa[e]pyrrolo[1,2-a][1,4]diazacyclopentadecin-6-yl)carbamate]	1.01 to 5	1.01 to 5		
COC[C@@H]1C[C@H](C)CC/C=C\[C@@H]2C[C@@]2(C(=O)NS(=O)(=O)C2(CF)CC2)NC(=O)[C@@H]2C[C@@H](Oc3nc4cc(OC)ccc4nc3C(F)(F)F)CN2C(=O)[C@H]1NC(=O)OC(C)(C)C(F)(F)F [Compound 1037, 1,1,1-trifluoro-2-methylpropan-2-yl ((2R,6S,7R,9R,13aS,14aR,16aS,Z)-14a-(((1-(fluoromethyl)cyclopropyl)sulfonyl)carbamoyl)-2-((7-methoxy-3-(trifluoromethyl)quinoxalin-2-yl)oxy)-7-(methoxymethyl)-9-methyl-5,16-dioxo-1,2,3,5,6,7,8,9,10,11,13a,14,14a,15,16,16a-hexadecahydrocyclopropa[e]pyrrolo[1,2-a][1,4]diazacyclopentadecin-6-yl)carbamate]	1.01 to 5	1.01 to 5		
COC[C@@H]1C[C@H](C)CC/C=C\[C@@H]2C[C@@]2(C(=O)NS(=O)(=O)C2(C)CC2)NC(=O)[C@@H]2C[C@@H](Oc3nccc4cc(OC)ccc34)CN2C(=O)[C@H]1NC(=O)OC(C)(C)C [Compound 1005, tert-butyl ((2R,6S,7R,9R,13aS,14aR,16aS,Z)-2-((6-methoxyisoquinolin-1-yl)oxy)-7-(methoxymethyl)-9-methyl-14a-(((1-methylcyclopropyl)sulfonyl)carbamoyl)-5,16-dioxo-1,2,3,5,6,7,8,9,10,11,13a,14,14a,15,16,16a-hexadecahydrocyclopropa[e]pyrrolo[1,2-a][1,4]diazacyclopentadecin-6-yl)carbamate]	0.1 to 0.5	1.01 to 5		
COC[C@@H]1C[C@@H](C)CC/C=C\[C@@H]2C[C@@]2(C(=O)NS(=O)(=O)C2(CF)CC2)NC(=O)[C@@H]2C[C@@H](Oc3nc4cc(OC)ccc4nc3C(C)C)CN2C(=O)[C@H]1NC(=O)OC(C)(C)C(F)(F)F [Compound 1040, 1,1,1-trifluoro-2-methylpropan-2-yl ((2R,6S,7R,9S,13aS,14aR,16aS,Z)-14a-(((1-(fluoromethyl)cyclopropyl)sulfonyl)carbamoyl)-2-((3-isopropyl-7-methoxyquinoxalin-2-yl)oxy)-7-(methoxymethyl)-9-methyl-5,16-dioxo-1,2,3,5,6,7,8,9,10,11,13a,14,14a,15,16,16a-hexadecahydrocyclopropa[e]pyrrolo[1,2-a][1,4]diazacyclopentadecin-6-yl)carbamate]	35 to 620	35 to 620		
COC[C@@H]1C[C@H](C)CC/C=C\[C@@H]2C[C@@]2(C(=O)NS(=O)(=O)C2(C)CC2)NC(=O)[C@@H]2C[C@@H](Oc3nc4cc(OC)ccc4nc3C(C)C)CN2C(=O)[C@H]1NC(=O)OC(C)(C)C [Compound 1030, tert-butyl ((2R,6S,7R,9R,13aS,14aR,16aS,Z)-2-((3-isopropyl-7-methoxyquinoxalin-2-yl)oxy)-7-(methoxymethyl)-9-methyl-14a-(((1-methylcyclopropyl)sulfonyl)carbamoyl)-5,16-dioxo-1,2,3,5,6,7,8,9,10,11,13a,14,14a,15,16,16a-hexadecahydrocyclopropa[e]pyrrolo[1,2-a][1,4]diazacyclopentadecin-6-yl)carbamate]	5.01 to 35	35 to 620		

Source: patent US9580463B2 (BRISTOL-MYERS SQUIBB COMPANY, priority 2013, dated 2017)
